Tests used:
[1] = system: release of allergic response mediators; conditions: background art; cited from earlier work
released SRS-A = conditions: background art; cited from earlier work
[2] = system: slow reacting substance of anaphylaxis, SRS-A, on isolated guinea pig ileum; assay: SRS-A Antagonism on Guinea Pig Ileum; design: species or system guinea pig (Dunkin Hartley male); conditions: atropine 5×10^-7 M and mepyramine 10^-6 M, sodium salt, read-out: Approximate concentration to give a 50% inhibition of a less than maximal response to SRS-A
Description: (b) antagonise the spasmogenic effects of slow reacting substance of anaphylaxis, SRS-A, on isolated guinea pig ileum.
(§1) The compounds were used in the form of their sodium salts.
(§2) Charles River Sprague Dawley male rats of 250-300 g. and Dunkin Hartley male white guinea pigs of 250-300 g. were used.
The compounds were evaluated as direct antagonists of slow reacting substance of anaphylaxis (SRS-A) by assay using the isolated guinea pig ileum.
SRS-A rat was obtained from the peritoneal cavity of the rat after passive peritoneal anaphylaxis by a method based on that of R. P. Orange, D. J. Stechschulte and K. F. Austen, J. Immunology, 105, 1087 (1970) as described by J. W. Ross, H. Smith and B. A. Spicer 1976, Increased vascular permeability during passive peritoneal anaphylaxis in the rat. Int. Arch. Allergy appl., 51, 226. The sensitising serum containing antibody was produced in rats as described by J. W. Ross et. al., ibid.
2 ml of a 1 in 5 dilution of the sensitising serum was injected by the peritoneal route into recipient rats and after 2 hours 5 ml of Tyrode's solution containing 0.4 mg/ml ovalbumin (Sigma Grade III) and 50 μg/ml heparin was injected by the same route. Five minutes after challenge the rats were stunned and bled and the peritoneal fluids collected into polycarbonate tubes in ice. After centrifugation at 150 g. for five minutes the supernatants were combined, heated in a boiling water bath for five minutes, cooled and stored at -20° C. The combined peritoneal fluids contained SRS-A and were used in the antagonism studies.
The SRS-A assays were carried out on isolated strips of guinea pig ileum in Tyrode's solution containing atropine 5×10^-7 M and mepyramine 10^-6 M as described by W. E. Brocklehurst, J. Physiology, 151, 416 (1960).
The ability of the antagonists was determined by their ability to reduce submaximal responses induced by SRS-A. The antagonists were added to the 4 ml bath in 0.1 ml volumes in aqueous solution half a minute before the addition of SRS-A and were present during induced contraction.

[3] = system: rat passive peritoneal anaphylaxis; assay: Rat Passive Peritoneal Anaphylaxis (PPA); type: in vivo, rat (Charles River Sprague Dawley male); conditions: Mean ± SEM, 5-7 rats per group, sodium salt
Source text: (a) inhibit rat passive peritoneal anaphylaxis; and
as §1, §2
The method has been described previously. (Ross, Janet W., Smith, H. and Spicer, Barbara A. Increased vascular permeability during passive peritoneal anaphylaxis in the rate. Int. Arch. Allergy appl. Immun., 51, 226, 1976).
Rats were sensitised by giving an intraperitoneal injection of 0.5 ml of Bordetella pertussis vaccine (4×10^10 organisms/ml Burroughs Wellcome, London) and a subcutaneous injection of 0.5 ml of an emulsion of 100 mg of ovalbumin (chicken egg albumin, crystallised and lyophilised, grade 3, Sigma, London) in 2 ml of isotonic saline and 3 ml of Freund's incomplete adjuvant (Difco Laboratories, Michigan, USA).
The rats were bled by cardiac puncture, on day 18, the blood was pooled, and the serum separated, stored at -20° C. and thawed only once before use.
Rats were each given an intraperitoneal injection of 2 ml of a 1 in 5 dilution of the rat anti-serum in isotonic saline. Two hours later 0.3 ml of a 5% solution of Pontamine Sky Blue (Raymond A. Lamb, London) in isotonic saline was injected intravenously, followed by an intraperitoneal injection of the test compound in 1 ml of saline; (control rats received 1 ml of saline); followed 30 seconds later by an intraperitoneal injection of 5 ml of Tyrode's solution containing 50 μg/ml heparin and 0.4 mg/ml of ovalbumin. The concentrations of the compounds are quoted as those in the 6 ml of fluid injected intraperitoneally. Exactly five minutes after challenge the rats were stunned and bled and their peritoneal fluids were collected by opening their peritoneal cavities over funnels into polycarbonate tubes in ice. The supernatants were separated from the cellular residue by centrifugation at 150 g. for five minutes and were retained for assay of dye and histamine. Any samples obviously contaminated with blood were not used for estimation of dye. Groups of at least five rats were used for each dose of compound and the treatments were randomised.
Dye was assayed within two hours by measurement of optical density (OD) at 625 nm.
For histamine assay 0.5 ml samples of the supernatants were added to 1 ml volumes of 12% trichloracetic acid and stored at -20° C. The deproteinised samples were assayed using an automated spectrofluorimetric system (Technicon Autoanalyser) by a method similar to that of Evans, D. P., Lewis, J. A. and Thomson, D. S.: (An automated fluorimetric assay for the rapid determination of histamine in biological fluids. Life Sci., 12, 327, 1973).

Row | SMILES | inhibition of release of allergic response mediators [1] | inhibition of released SRS-A (released SRS-A) | IC50 [2] | Dye concentration in peritoneal fluid as % of mean of controls ([3]; 2 × 10^-6 M injected ip) | Histamine concentration in peritoneal fluid as % of mean of controls ([3]; 2 × 10^-6 M injected ip) | Dye concentration in peritoneal fluid as % of mean of controls ([3]; 2 × 10^-7 M injected ip) | Histamine concentration in peritoneal fluid as % of mean of controls ([3]; 2 × 10^-7 M injected ip) | Dye concentration in peritoneal fluid as % of mean of controls ([3]; 2 × 10^-5 M injected ip) | Histamine concentration in peritoneal fluid as % of mean of controls ([3]; 2 × 10^-5 M injected ip)
1 | CCCc1c(OCC(O)COc2ccc3c(=O)cc(C(=O)O)oc3c2CCC)ccc(C(C)=O)c1O (stereo not shown) [FPL 55712] | able to effect at least some inhibition of release of these allergic response mediators | inhibit released SRS-A |  |  |  |  |  |  | 
2 | CCCc1c(OCC(O)COc2ccc3c(=O)c4[nH]nnc4oc3c2)ccc(C(C)=O)c1O (stereo not shown) [Example 3, 6-[3-(4-Acetyl-3-hydroxy-2-n-propylphenoxy)-2-hydroxypropan-1-yloxy]-9-oxo-1H,9H-benzopyrano[2,3-d]-v-triazole] |  |  | ~0.063 µM | 51 ± 5 % of mean of controls | 16 ± 2 % of mean of controls | 74 ± 9 % of mean of controls | 56 ± 5 % of mean of controls |  | 
3 | CCCc1c(OCC(O)COc2ccc3c(=O)c4[nH]nnc4oc3c2C)ccc(C(C)=O)c1O (stereo not shown) [Example 2, 6-[3-(4-Acetyl-3-hydroxy-2-n-propylphenoxy)-2-hydroxypropan-1-yloxy]-5-methyl-9-oxo-1H,9H-benzopyrano[2,3-d]-v-triazole] |  |  | ~0.032 µM | 42 ± 5 % of mean of controls | 14 ± 2 % of mean of controls | 61 ± 7 % of mean of controls | 56 ± 1 % of mean of controls |  | 
4 | CCCc1c(OCCCOc2ccc3c(=O)c4[nH]nnc4oc3c2C)ccc(C(C)=O)c1O [Example 1, 6-[3-(4-Acetyl-3-hydroxy-2-n-propylphenoxy)propan-1-yloxy]-5-methyl-9-oxo-1H,9H-benzopyrano[2,3,d]-v-triazole] |  |  | ~0.1 µM | 63 ± 5 % of mean of controls | 18 ± 2 % of mean of controls |  |  | 54 ± 7 % of mean of controls | 17 ± 2 % of mean of controls
5 | CCCc1c(OCCCOc2cccc3oc4nn[nH]c4c(=O)c23)ccc(C(C)=O)c1O [Example 4, 8-[3-(4-Acetyl-3-hydroxy-2-n-propylphenoxy)-propan-1-yloxy]-9-oxo-1H,9H-benzopyrano-[2,3-d]-v-triazole] |  |  | ~0.05 µM | 104 ± 20 % of mean of controls | 89 ± 7 % of mean of controls |  |  | 92 ± 10 % of mean of controls | 42 ± 6 % of mean of controls

Source: patent US4427686A, “Pharmacologically active benzopyranotriazole compounds” (Beecham Group Limited, priority 1980, dated 1984)
